Source: US11981944B2, “Immunogenic arginase peptides” (IO Biotech ApS, priority 2016, dated 2024)

Tested on: peripheral blood mononuclear cells (PBMC)
Assay: IFN-gamma ELISPOT secretion assay on PBMC (Example 1)
Format: cell-based, human
Details: for specific T-cell responses against Arg-derived peptide: IFN-gamma ELISPOT, PBMC from six melanoma patients, FIG. 1; for immune responses against overlapping 20mer peptides: PBMC from three cancer patients, FIG. 3

Sequence	specific T-cell responses against Arg-derived peptide	immune responses against overlapping 20mer peptides
GLLSGLDIM (Peptide fragment of human Arginase 1) [Arg9, positions 268-276 of human Arginase 1]	Strong responses	–
VLGGDHSLAI (Peptide fragment of human Arginase 1) [Arg15, positions 96-105 of human Arginase 1]	Strong responses	–
YLLGRKKRPI (Peptide fragment of human Arginase 1) [Arg14, positions 218-227 of human Arginase 1]	Strong responses	–
LVLGGDHSL (Peptide fragment of human Arginase 1) [Arg2, positions 95-103 of human Arginase 1]	Strong responses	–
LLSGLDIMEV (Peptide fragment of human Arginase 1) [Arg11, positions 269-278 of human Arginase 1]	Strong responses	–
VMEETLSYLLGRKKRPIHLS (Peptide fragment of human Arginase 1) [Arg1-22, positions 211-230 of human Arginase 1]	–	Frequent immune responses were detected
LLKELKGKI [Arg3]	Strong responses	–
SLGKTPEEV (Peptide fragment of human Arginase 1) [Arg7, positions 281-289 of human Arginase 1]	Strong responses	–
DIMEVNPSL (Peptide fragment of human Arginase 1) [Arg10, positions 274-282 of human Arginase 1]	Strong responses	–
VMEETLSYL (Peptide fragment of human Arginase 1) [Arg5, positions 211-219 of human Arginase 1]	Strong responses	–
ELKGKIPDVPGFSWVTPCIS (Peptide fragment of human Arginase 1) [Arg1-16, positions 151-170 of human Arginase 1]	–	Frequent immune responses were detected
GDLPFADIPNDSPFQIVKNP (Peptide fragment of human Arginase 1) [Arg1-6, positions 51-70 of human Arginase 1]	–	Frequent immune responses were detected
DSPFQIVKNPRSVGKASEQL (Peptide fragment of human Arginase 1) [Arg1-7, positions 61-80 of human Arginase 1]	–	Frequent immune responses were detected
HGQPVSFLLKELKGKIPDVP (Peptide fragment of human Arginase 1) [Arg1-15, positions 141-160 of human Arginase 1]	–	Frequent immune responses were detected
SLGKTPEEVTRTVNTAVAIT (Peptide fragment of human Arginase 1) [Arg1-29, positions 281-300 of human Arginase 1]	–	Frequent immune responses were detected
TPLTTTSGNLHGQPVSFLLK (Peptide fragment of human Arginase 1) [Arg1-14, positions 131-150 of human Arginase 1]	–	Frequent immune responses were detected
HLSFDVDGL (Peptide fragment of human Arginase 1) [Arg6, positions 228-236 of human Arginase 1]	Strong responses	–
MSAKSRTIGIIGAPFSKGQP (Peptide fragment of human Arginase 1) [Arg1-1, positions 1-20 of human Arginase 1]	–	Frequent immune responses were detected
